The results in this text go back to US9242984B2, “Pyrazolyl derivatives as Syk inhibitors” (Merck Sharp & Dohme Corp., priority 2012, dated 2016).

A value given as a limit tells only on which side of the number the result lay.

One experiment deals with T1, recombinant human Syk (GST-hSyk fusion protein) (Homo sapiens, UniProt P43405).
T1 construct: purchased Carna Biosciences 08-176
The experiment can be described thus: Homogeneous Time-Resolved Fluorescence (HTRF) assay for the recombinant human Syk enzyme. Type of experiment: biochemical. The conditions noted are these: 10-dose titration, 25 μM ATP; read-out: rhSYK IC50. Here is the method: Syk inhibition may be determined using the following assay protocol:
Homogeneous Time-Resolved Fluorescence (HTRF) Assay for the Recombinant Human Syk Enzyme:
A recombinant GST-hSyk fusion protein was used to measure potency of compounds to inhibit human Syk activity. The recombinant human GST-Syk (Carna Biosciences #08-176) (5 pM final concentration) was incubated with various concentrations of the inhibitor diluted in DMSO (0.1% final concentration) for 10 minutes at room temperature in 15 mM Tris-HCl (pH 7.5), 0.01% tween 20, 2 mM DTT in 384 well plate format. To initiate the reaction the biotinylated substrate peptide (250 nM final concentration) that contains the phosphorylation site for Syk was added with magnesium (5 mM final concentration) and ATP (25 μM final concentration). Final volume of the reaction was 10 μL. Phosphorylation of the peptide was allowed to proceed for 45 minutes at room temperature. To quench the reaction and detect the phosphorylated product, 2 nM of a Europium-anti-phosphotyrosine antibody (Perkin Elmer #AD0161) and 70 nM SA-APC (Perkin-Elmer #CR130-100) were added together in 15 mM Tris pH 7.5, 40 mM EDTA, 0.01% tween 20. Final volume of the quenching solution was 10 μL. The resulting HTRF signal was measured after 30 minutes on an EnVision (Perkin-Elmer) reader using a time-resolved fluorescence protocol. IC50 was determined following 10-dose titration (10 μM to 0.508 nM) and four parameter logistic curve fitting using the Merck Assay Data Analyzer. The rhSyk activity (IC50) is expressed as +++(100 nM or less), ++(between 100 and 1000 nM), +(between 1 and 10 μM).
For `Cc1cc(Nc2nccc(C(F)(F)F)n2)cc(-c2cnn(CC(O)c3ccccc3)c2)c1` (racemic) [Example 5.1, 2-(4-(3-methyl-5-((4-(trifluoromethyl)pyrimidin-2-yl)amino)phenyl)-1H-pyrazol-1-yl)-1-phenylethanol], the IC50 turned out to be 58.5 nM.
`Cc1cc(Nc2ncc(F)c(C(F)F)n2)cc(-c2cnn([C@H]3CCC[C@H](O)[C@@H]3O)c2)c1` (relative stereo) [Example 10.12, 3-[4-(3-{[4-(difluoromethyl)-5-fluoro-pyrimidin-2-yl]amino}-5-methylphenyl)-1H-pyrazol-1-yl]cyclohexane-1,2-diol]: the IC50 is 4.7 nM.
Take `Cc1cc(Nc2nccc(C(F)(F)F)n2)cc(-c2cnn(C3CCNC(=O)CC3)c2)c1` (single isomer, unassigned) [14.1 (enantiomer 1)]: the IC50 is 28 nM.
As to `Cc1cc(Nc2nccc(C(F)(F)F)n2)cc(-c2cnn(C3CCNC(=O)CC3)c2)c1` (single isomer, unassigned) [14.1 (enantiomer 2)], the IC50 came to 10.1 nM.
Still for that read-out and setting: next, `Cc1cc(Nc2nccc(C(F)(F)F)n2)cc(-c2cnn(CC3CN(C)C(=O)O3)c2)c1` (single isomer, unassigned) [Example 3.1, 3-methyl-5-{[4-(3-methyl-5-{[4-(trifluoromethyl)pyrimidin-2-yl]amino}phenyl)-1H-pyrazol-1-yl]methyl}-1,3-oxazolidin-2-one]: 31.2 nM; `Cc1cc(Nc2nccc(C(F)(F)F)n2)cc(-c2cnn(CC(O)C(N)=O)c2)c1` (single isomer, unassigned) [Example 7.1, (R or S)-2-hydroxy-3-[4-(3-methyl-5-{[4-(trifluoromethyl)pyrimidin-2-yl]amino}phenyl)-1H-pyrazol-1-yl]propanamide]: 1.1 nM; `Cc1cc(Nc2nccc(C(F)(F)F)n2)cc(-c2cnn(CC(C)(O)C(N)=O)c2)c1` (single isomer, unassigned) [Example 8.1, (R or S) 2-hydroxy-2-methyl-3-[4-(3-methyl-5-{[4-(trifluoromethyl)pyrimidin-2-yl]amino}phenyl)-1H-pyrazol-1-yl]propanamide]: 1 nM.

Staying with this experiment, now noted: IC50 class; 10-dose titration, 25 μM ATP; read-out: rhSYK Activity.
On to “1-[4-(3-methyl-5-{[4-(trifluoro-ethyl)pyrimidin-2-yl]amino}-phenyl)-1H-pyrazol-1-yl]-3-morpholin-4-ylpropan-2-ol [Example 5.10]”, for which the IC50 was at most 100 nM.
Consider “3-[4-(4-methyl-6-{[4-(trifluoromethyl)pyridin-2-yl]amino}pyrimidin-2-yl)-1H-pyrazol-1-yl]propanoic acid [Example 1.40]”, for which the IC50 is at most 100 nM.
For the compound “4-{1-[4-(4-methyl-6-{[4-(trifluoromethyl)pyridin-2-yl]amino}pyridin-2-yl)-1H-pyrazol-1-yl]ethyl}pyrrolidin-2-one [Example 1.32]”, the IC50 was at most 100 nM.
“4-{[4-(4-methyl-6-{[4-(trifluoromethyl)-pyridin-2-yl]amino}-pyridin-2-yl)-1H-pyrazol-1-yl]methyl}-pyrrolidin-2-one [Example 1.39]”: the IC50 was at most 100 nM.
On the same count and under the same terms, next, “4-{[4-(4-methyl-6-{[4-(trifluoromethyl)pyridin-2-yl]amino}pyridin-2-yl)-1H-pyrazol-1-yl]-methyl}pyrrolidin-2-one [Example 1.38]”: at most 100 nM.
Consider “4-{[4-(6-{[4-(difluoromethyl)pyridin-2-yl]amino}-4-methylpyridin-2-yl)-1H-pyrazol-1-yl)methyl}pyrrolidin-2-one [Example 1.37]”, for which the IC50 is at most 100 nM.
The same measure, in the same setting: next, “4-{[4-(6-{[4-(difluoromethyl)pyridin-2-yl]amino}-4-methylpyridin-2-yl)-1H-pyrazol-1-yl]methyl}pyrrolidin-2-one [Example 1.35]”: at most 100 nM; “5-{[4-(3-{[4-(1,1-difluoromethyl)pyrimidin-2-yl]amino}-5-methylphenyl)-1H-pyrazol-1-yl]methyl}-4-methyl-1,3-oxazolidin-2-one [Example 23.11]”: at most 100 nM.
Regarding “6-methyl-2-(1H-pyrazol-4-yl)-N-[4-(trifluoro-methyl)pyridin-2-yl]pyrimidin-4-amine [Example 1.41]”, the IC50 is at most 100 nM.
Still for that read-out and setting: with “6-methyl-2-pyrazolo-[1,5-a]pyridin-3-yl-N-[4-(trifluoromethyl)-pyridin-2-yl]pyrimidin-4-amine [Example 1.42]” the figure was at most 100 nM; with `Cc1cc(Nc2nccc(C(F)(F)F)n2)cc(-c2cnn(CC(O)C(F)(F)F)c2)c1` (racemic) [Example 3.43, 1,1,1-trifluoro-3-[4-(3-methyl-5-{[4-(trifluoromethyl)pyrimidin-2-yl]amino}phenyl)-1H-pyrazol-1-yl]propan-2-ol], at most 100 nM; with `Cc1cc(Nc2nccc(C(F)(F)F)n2)cc(-c2cnn(CC(O)c3ccccc3)c2)c1` (racemic) [Example 5.1, 2-(4-(3-methyl-5-((4-(trifluoromethyl)pyrimidin-2-yl)amino)phenyl)-1H-pyrazol-1-yl)-1-phenylethanol], at most 100 nM.
For `COC(=O)C(C)(O)Cn1cc(-c2cc(C)cc(Nc3nccc(C(F)(F)F)n3)c2)cn1` (racemic) [Example 5.4, methyl 2-hydroxy-2-methyl-3-[4-(3-methyl-5-{[4-(trifluoro-methyl)pyrimidin-2-yl]amino}phenyl)-1H-pyrazol-1-yl]propanoate], the IC50 is at most 100 nM.
The same measure, in the same setting: next, `Cc1cc(Nc2nccc(C(F)(F)F)n2)cc(-c2cnn(CC(C)(O)C(=O)O)c2)c1` (racemic) [Example 5.6, 2-hydroxy-2-methyl-3-[4-(3-methyl-5-{[4-(trifluoro-methyl)pyrimidin-2-yl]amino}-phenyl)-1H-pyrazol-1-yl]propanoic acid]: at most 100 nM.
On to `CCC(O)Cn1cc(-c2cc(C)cc(Nc3nccc(C(F)(F)F)n3)c2)cn1` (racemic) [Example 5.9, 1-[4-(3-methyl-5-{[4-(trifluoro-methyl)pyrimidin-2-yl]amino}-phenyl)-1H-pyrazol-1-yl]butan-2-ol], for which the IC50 was at most 100 nM.
On to `Cc1cc(-c2cnn(CC(O)CF)c2)cc(N(CC(O)CF)c2nccc(C(F)(F)F)n2)c1` (racemic) [Example 5.13, 1-fluoro-3-({3-[1-(3-fluoro-2-hydroxy-propyl)-1H-pyrazol-4-yl]-5-methyl-phenyl}-[4-(trifluoromethyl)-pyrimidin-2-yl]-amino)propan-2-ol], for which the IC50 fell in the range of 100 to 1000 nM.
For the compound `Cc1cc(Nc2nccc(C(F)(F)F)n2)cc(-c2cnn(CC(O)C(=O)O)c2)c1` (racemic) [Example 5.14, 2-hydroxy-3-[4-(3-methyl-5-{[4-(trifluoro-methyl)pyrimidin-2-yl]amino}-phenyl)-1H-pyrazol-1-yl]propanoic acid], the IC50 is at most 100 nM.
Regarding `Cc1cc(Nc2nccc(C(F)(F)F)n2)cc(-c2cnn(CC(O)CO)c2)c1` (racemic) [Example 5.15, 3-[4-(3-methyl-5-{[4-(trifluoromethyl)-pyrimidin-2-yl]amino}-phenyl)-1H-pyrazol-1-yl]propane-1,2-diol], the IC50 is at most 100 nM.
Regarding `Cc1cc(Nc2nccc(C(F)(F)F)n2)cc(-c2cnn(C(C)C(N)=O)c2)c1` (racemic) [Example 8.8, 2-[4-(3-methyl-5-{[4-(trifluoromethyl)-pyrimidin-2-yl]amino}phenyl)-1H-pyrazol-1-yl]propanamide], the IC50 was at most 100 nM.
Consider `Cc1cc(Nc2nccc(C(F)(F)F)n2)cc(-c2cnn(CC(C)(O)C(N)=O)c2)c1` (racemic) [Example 8.11, 2-hydroxy-2-methyl-3-[4-(3-methyl-5-{[4-(trifluorometh-yl)pyrimidin-2-yl]amino}-phenyl)-1H-pyrazol-1-yl]propanamide], for which the IC50 was at most 100 nM.
On the same count and under the same terms, with `Cc1cc(Nc2ncc(F)c(C(F)F)n2)cc(-c2cnn([C@H]3CCC[C@H](O)[C@@H]3O)c2)c1` (relative stereo) [Example 10.12, 3-[4-(3-{[4-(difluoromethyl)-5-fluoro-pyrimidin-2-yl]amino}-5-methylphenyl)-1H-pyrazol-1-yl]cyclohexane-1,2-diol] the figure was at most 100 nM; with `Cc1cc(Nc2nccc(C(F)(F)F)n2)cc(-c2cnn(C3CCNC(=O)CC3)c2)c1` (single isomer, unassigned) [14 (isomer 1)], at most 100 nM; with `Cc1cc(Nc2nccc(C(F)(F)F)n2)cc(-c2cnn(CC3CNC(=O)O3)c2)c1` (single isomer, unassigned) [Example 2.4, 5-{[4-(3-methyl-5-{[4-(trifluoromethyl)-pyrimidin-2-yl]-amino}phenyl)-1H-pyrazol-1-yl]methyl}-1,3-oxazolidin-2-one], at most 100 nM.
On the same count and under the same terms, next, `Cc1cc(Nc2nccc(C(F)(F)F)n2)cc(-c2cnn(CC3CN(C)C(=O)O3)c2)c1` (single isomer, unassigned) [Example 3.1, 3-methyl-5-{[4-(3-methyl-5-{[4-(trifluoromethyl)pyrimidin-2-yl]amino}phenyl)-1H-pyrazol-1-yl]methyl}-1,3-oxazolidin-2-one]: at most 100 nM.
On the same count and under the same terms, next, `Cc1cc(Nc2nccc(C(F)(F)F)n2)cc(-c2cnn(CC(O)C(F)(F)F)c2)c1` (single isomer, unassigned) [Example 3.44, 1,1,1-trifluoro-3-[4-(3-methyl-5-{[4-(trifluoromethyl)pyrimidin-2-yl]amino}phenyl)-1H-pyrazol-1-yl]propan-2-ol]: at most 100 nM; `Cc1cc(Nc2nccc(C(F)(F)F)n2)cc(-c2cnn(CC(O)C(F)(F)F)c2)c1` (single isomer, unassigned) [Example 3.45, 1,1,1-trifluoro-3-[4-(3-methyl-5-{[4-(trifluoromethyl)pyrimidin-2-yl]amino}phenyl)-1H-pyrazol-1-yl]propan-2-ol]: at most 100 nM; `Cc1cc(Nc2nccc(C(F)(F)F)n2)cc(-c2cnn(CC(O)C(N)=O)c2)c1` (single isomer, unassigned) [Example 7.1, (R or S)-2-hydroxy-3-[4-(3-methyl-5-{[4-(trifluoromethyl)pyrimidin-2-yl]amino}phenyl)-1H-pyrazol-1-yl]propanamide]: at most 100 nM.
Consider `Cc1cc(Nc2nccc(C(F)(F)F)n2)cc(-c2cnn(CC(C)(O)C(N)=O)c2)c1` (single isomer, unassigned) [Example 8.1, (R or S) 2-hydroxy-2-methyl-3-[4-(3-methyl-5-{[4-(trifluoromethyl)pyrimidin-2-yl]amino}phenyl)-1H-pyrazol-1-yl]propanamide], for which the IC50 was at most 100 nM.
